Reference: US7557144B1, “Modulation of protein expression using carbocyclic aryl alkenoic acid derivatives” (The Johns Hopkins University, priority 2000, dated 2009)

Experiments:
calnexin = test: Calnexin immunoblot of IB3-1 lysates; assay type: cell-based, human; details: IB3-1 cells, increasing concentrations of 4-PBA
Procedure: 3. Immunoblot analysis. Whole cell lysates were prepared by solubilization with 2% SDS at 95° C. Protein concentration in the lysates was determined using the Bio-Rad DC assay reagents with bovine plasma g-globulin as a standard (Bio-Rad Laboratories, Hercules, Calif.). Equal amounts of protein was resolved on 5, 7, 8, or 9% SDS-polyacrylamide gels. Proteins were transferred to nitrocellulose, and immunodetection was performed as previously described (25). Nonspecific binding was blocked by incubation of the nitrocellulose with 2% gelatin or 10% nonfat day milk. Primary antisera and secondary antibodies were applied in buffer containing 0.4% BSA overnight at 4° C. and for 1 h at room temperature, respectively. Detection of immunoreactivity was performed with the enhanced chemiluminescence reagent (ECL, Amer-sham) and fluorography. Recombinant bovine Hsc70 ([…]) was purchased from Stressgen Biotechnologies for use in constructing a standard curve of Hsc70 immunoreactivity. Immunoblots containing the bovine Hsc70 were probed with the Hsc70-specific polyclonal antiserum.
Whether 4-PBA would regulate expression of a number of other molecular chaperones in IB3-1 cells (FIG. 2) was assessed next. […] Hsp90 is required for correct folding and function of a number of cellular proteins (16). […]

CFTR = test: Nasal potential difference in CF patients; assay type: in vivo, human
Text: Standard methods for detecting and quantifying electrical potentials from nasal epithelia have been reported. See e.g., Zeitlin, P. L. (2000) in Mol. Therapy 1: 1; Noone, P. G. et al. (2000) in Mol. Therapy 1: 105-114; Caplen, J. J. et al. (1995) Nat. Med. 1: 39-46; Middleton, P. G. (1994) in Eur. Respir. 7: 2050-2056; the disclosures of which are hereby incorporated by reference.
This is consistent with the presence of a functional CFTR in the nasal epithelial cell surface.
FIG. 16D the same individual as in […] 18 days on 4-phenylbutyrate.

O=C(O)CCCc1ccccc1 [4-PBA, 4-phenylbutyric acid]
expression of calnexin (calnexin): did not affect | nasal potential difference response to low chloride/isoproterenol (CFTR; CF patient (deltaF508 homozygous), 20 gm daily for 7 days): induce chloride transport | nasal potential difference response to low chloride/isoproterenol (CFTR; same CF patient after 18 days on 4-phenylbutyrate): continues to sustain chloride transport
